Laboratory results reported in the NIST ThermoML archive (doi:10.1021/je800463k).
± gives the expanded uncertainty stated by the source.

Experiment: mn = molality of the nth substance listed, in mol/kg
Conditions: 101 kPa, Liquid; for mass density: Pycnometric method; for electrical conductivity: Frequency=0.001 MHz, Alternating current cell with electrodes; for speed of sound: Frequency=2 MHz

Structure (SMILES): O=[N+]([O-])[O-].O=[N+]([O-])[O-].[Mg+2] [magnesium nitrate] + CO
- mass density (301.25 K, m1 = 0.4024): 827.04 ± 16 kg/m3
- mass density (301.3 K, m1 = 0.0082): 785.69 ± 0.79 kg/m3
- mass density (301.4 K, m1 = 0.2776): 814.59 ± 12 kg/m3
- mass density (301.4 K, m1 = 1.71): 952.09 ± 57 kg/m3
- mass density (302.05 K, m1 = 0.0545): 790.26 ± 2.4 kg/m3
- mass density (302.2 K, m1 = 0.4555): 830.9 ± 18 kg/m3
- mass density (302.25 K, m1 = 0.782): 868.46 ± 29 kg/m3
- mass density (302.45 K, m1 = 0.1047): 796.51 ± 4.2 kg/m3
- mass density (302.55 K, m1 = 1.004): 883.47 ± 37 kg/m3
- mass density (302.7 K, m1 = 0.6276): 848.25 ± 32 kg/m3
- mass density (302.7 K, m1 = 1.259): 910.86 ± 54 kg/m3
- mass density (302.85 K, m1 = 1.875): 961.69 ± 57 kg/m3
- electrical conductivity (303.15 K, m1 = 0.0082): 0.1462 ± 0.0001 S/m
- electrical conductivity (303.15 K, m1 = 0.0545): 0.4108 ± 0.0001 S/m
- electrical conductivity (303.15 K, m1 = 0.0667): 0.4481 ± 0.0001 S/m
- electrical conductivity (303.15 K, m1 = 0.1047): 0.5889 ± 0.0001 S/m
- electrical conductivity (303.15 K, m1 = 0.2776): 1.123 ± 0.001 S/m
- electrical conductivity (303.15 K, m1 = 0.4024): 1.41 ± 0.001 S/m
- electrical conductivity (303.15 K, m1 = 0.4555): 1.489 ± 0.001 S/m
- electrical conductivity (303.15 K, m1 = 0.6276): 1.775 ± 0.001 S/m
- electrical conductivity (303.15 K, m1 = 0.782): 1.979 ± 0.001 S/m
- electrical conductivity (303.15 K, m1 = 0.881): 2.037 ± 0.001 S/m
- electrical conductivity (303.15 K, m1 = 0.9116): 2.054 ± 0.001 S/m
- electrical conductivity (303.15 K, m1 = 1.004): 2.136 ± 0.001 S/m
- electrical conductivity (303.15 K, m1 = 1.259): 2.213 ± 0.001 S/m
- electrical conductivity (303.15 K, m1 = 1.492): 2.223 ± 0.001 S/m
- electrical conductivity (303.15 K, m1 = 1.71): 2.246 ± 0.001 S/m
- electrical conductivity (303.15 K, m1 = 1.875): 2.217 ± 0.001 S/m
- speed of sound (303.15 K, m1 = 0.0082): 1091.9 ± 6.4 m/s
- speed of sound (303.15 K, m1 = 0.0545): 1098.1 ± 6.4 m/s
- speed of sound (303.15 K, m1 = 0.0667): 1096.9 ± 6.4 m/s
- speed of sound (303.15 K, m1 = 0.1047): 1102.5 ± 6.4 m/s
- speed of sound (303.15 K, m1 = 0.2776): 1121.5 ± 6.5 m/s
- speed of sound (303.15 K, m1 = 0.4024): 1132.5 ± 6.6 m/s
- speed of sound (303.15 K, m1 = 0.4555): 1139.1 ± 6.6 m/s
- speed of sound (303.15 K, m1 = 0.6276): 1155.5 ± 6.7 m/s
- speed of sound (303.15 K, m1 = 0.782): 1172.9 ± 6.7 m/s
- speed of sound (303.15 K, m1 = 0.881): 1179.3 ± 6.7 m/s
- speed of sound (303.15 K, m1 = 0.9116): 1182.3 ± 6.8 m/s
- speed of sound (303.15 K, m1 = 1.004): 1196.9 ± 6.8 m/s
- speed of sound (303.15 K, m1 = 1.259): 1219.1 ± 6.9 m/s
- speed of sound (303.15 K, m1 = 1.492): 1243 ± 7 m/s
- speed of sound (303.15 K, m1 = 1.71): 1263.7 ± 7.1 m/s
- speed of sound (303.15 K, m1 = 1.875): 1272.7 ± 7.1 m/s
- mass density (303.15 K, m1 = 0.0082): 783.99 ± 0.96 kg/m3
- viscosity (303.15 K, m1 = 0.0082): 0.5215 ± 0.029 mPa·s
- viscosity (303.15 K, m1 = 0.0545): 0.5545 ± 0.03 mPa·s
- viscosity (303.15 K, m1 = 0.0667): 0.5716 ± 0.031 mPa·s
- viscosity (303.15 K, m1 = 0.1047): 0.5909 ± 0.032 mPa·s
- viscosity (303.15 K, m1 = 0.2776): 0.6836 ± 0.036 mPa·s
- viscosity (303.15 K, m1 = 0.4024): 0.7943 ± 0.041 mPa·s
- viscosity (303.15 K, m1 = 0.4555): 0.8264 ± 0.042 mPa·s
- viscosity (303.15 K, m1 = 0.6276): 1.05 ± 0.052 mPa·s
- viscosity (303.15 K, m1 = 0.782): 1.177 ± 0.057 mPa·s
- viscosity (303.15 K, m1 = 0.881): 1.184 ± 0.057 mPa·s
- viscosity (303.15 K, m1 = 0.9116): 1.245 ± 0.06 mPa·s
- viscosity (303.15 K, m1 = 1.004): 1.354 ± 0.065 mPa·s
- viscosity (303.15 K, m1 = 1.259): 1.875 ± 0.087 mPa·s
- viscosity (303.15 K, m1 = 1.492): 2.267 ± 0.1 mPa·s
- viscosity (303.15 K, m1 = 1.71): 2.73 ± 0.12 mPa·s
- viscosity (303.15 K, m1 = 1.875): 3.138 ± 0.14 mPa·s
- mass density (303.25 K, m1 = 0.4024): 825.26 ± 16 kg/m3
- mass density (303.4 K, m1 = 0.2776): 812.83 ± 12 kg/m3
- mass density (303.4 K, m1 = 1.492): 932.03 ± 49 kg/m3
- mass density (303.75 K, m1 = 0.0545): 788.57 ± 2.5 kg/m3
- mass density (303.85 K, m1 = 0.881): 868.76 ± 6.8 kg/m3
- mass density (304 K, m1 = 0.0082): 782.31 ± 1.4 kg/m3
- mass density (304.1 K, m1 = 0.782): 866.62 ± 5.9 kg/m3
- mass density (304.2 K, m1 = 0.4555): 829.11 ± 18 kg/m3
- mass density (304.25 K, m1 = 0.1047): 794.8 ± 5.5 kg/m3
- mass density (304.35 K, m1 = 0.0667): 789.8 ± 3.6 kg/m3
- mass density (304.65 K, m1 = 0.6276): 846.53 ± 24 kg/m3
- mass density (304.65 K, m1 = 1.004): 881.56 ± 40 kg/m3
- mass density (304.8 K, m1 = 1.259): 908.91 ± 48 kg/m3
- mass density (304.9 K, m1 = 1.71): 949.01 ± 61 kg/m3
- mass density (304.95 K, m1 = 0.0082): 780.67 ± 1.2 kg/m3
- mass density (305.05 K, m1 = 0.4024): 823.53 ± 16 kg/m3
- mass density (305.15 K, m1 = 0.0667): 789.04 ± 3.1 kg/m3
- mass density (305.25 K, m1 = 0.2776): 811.08 ± 11 kg/m3
- mass density (305.55 K, m1 = 0.0545): 786.97 ± 2.4 kg/m3
- mass density (306 K, m1 = 1.875): 958.63 ± 57 kg/m3
- mass density (306.6 K, m1 = 0.0082): 778.26 ± 0.98 kg/m3
- mass density (306.7 K, m1 = 1.492): 929.13 ± 56 kg/m3
- mass density (306.75 K, m1 = 1.004): 879.67 ± 44 kg/m3
- mass density (306.8 K, m1 = 0.4024): 821.82 ± 15 kg/m3
- mass density (306.8 K, m1 = 0.881): 866.06 ± 39 kg/m3
- mass density (306.85 K, m1 = 0.0667): 787.33 ± 3.6 kg/m3
- mass density (306.85 K, m1 = 0.1047): 792.32 ± 5.5 kg/m3
- mass density (306.9 K, m1 = 1.259): 907.07 ± 51 kg/m3
- mass density (306.95 K, m1 = 0.4555): 826.52 ± 17 kg/m3
- mass density (307.1 K, m1 = 1.71): 947.08 ± 57 kg/m3
- mass density (307.15 K, m1 = 0.2776): 809.38 ± 11 kg/m3
- mass density (307.15 K, m1 = 0.782): 863.84 ± 6.1 kg/m3
- mass density (307.25 K, m1 = 0.0545): 785.27 ± 2.4 kg/m3
- mass density (307.55 K, m1 = 0.6276): 843.81 ± 32 kg/m3
- electrical conductivity (308.15 K, m1 = 0.0082): 0.1518 ± 0.0001 S/m
- electrical conductivity (308.15 K, m1 = 0.0545): 0.4242 ± 0.0001 S/m
- electrical conductivity (308.15 K, m1 = 0.0667): 0.4649 ± 0.0001 S/m
- electrical conductivity (308.15 K, m1 = 0.1047): 0.6114 ± 0.0001 S/m
- electrical conductivity (308.15 K, m1 = 0.2776): 1.172 ± 0.001 S/m
- electrical conductivity (308.15 K, m1 = 0.4024): 1.476 ± 0.001 S/m
- electrical conductivity (308.15 K, m1 = 0.4555): 1.559 ± 0.001 S/m
- electrical conductivity (308.15 K, m1 = 0.6276): 1.867 ± 0.001 S/m
- electrical conductivity (308.15 K, m1 = 0.782): 2.089 ± 0.001 S/m
- electrical conductivity (308.15 K, m1 = 0.881): 2.154 ± 0.001 S/m
- electrical conductivity (308.15 K, m1 = 0.9116): 2.173 ± 0.001 S/m
- electrical conductivity (308.15 K, m1 = 1.004): 2.266 ± 0.001 S/m
- electrical conductivity (308.15 K, m1 = 1.259): 2.359 ± 0.001 S/m
- electrical conductivity (308.15 K, m1 = 1.492): 2.396 ± 0.001 S/m
- electrical conductivity (308.15 K, m1 = 1.71): 2.421 ± 0.001 S/m
- electrical conductivity (308.15 K, m1 = 1.875): 2.395 ± 0.001 S/m
- speed of sound (308.15 K, m1 = 0.0082): 1075.4 ± 6.3 m/s
- speed of sound (308.15 K, m1 = 0.0545): 1082.1 ± 6.4 m/s
- speed of sound (308.15 K, m1 = 0.0667): 1083.3 ± 6.4 m/s
- speed of sound (308.15 K, m1 = 0.1047): 1086 ± 6.4 m/s
- speed of sound (308.15 K, m1 = 0.2776): 1106.2 ± 6.5 m/s
- speed of sound (308.15 K, m1 = 0.4024): 1116.1 ± 6.5 m/s
- speed of sound (308.15 K, m1 = 0.4555): 1122.4 ± 6.5 m/s
- speed of sound (308.15 K, m1 = 0.6276): 1139.5 ± 6.6 m/s
- speed of sound (308.15 K, m1 = 0.782): 1157.4 ± 6.7 m/s
- speed of sound (308.15 K, m1 = 0.881): 1163.7 ± 6.7 m/s
- speed of sound (308.15 K, m1 = 0.9116): 1165.8 ± 6.7 m/s
- speed of sound (308.15 K, m1 = 1.004): 1180.7 ± 6.8 m/s
- speed of sound (308.15 K, m1 = 1.259): 1200 ± 6.8 m/s
- speed of sound (308.15 K, m1 = 1.492): 1227 ± 6.9 m/s
- speed of sound (308.15 K, m1 = 1.71): 1247.8 ± 7 m/s
- speed of sound (308.15 K, m1 = 1.875): 1256.6 ± 7.1 m/s
- viscosity (308.15 K, m1 = 0.0082): 0.486 ± 0.027 mPa·s
- viscosity (308.15 K, m1 = 0.0545): 0.5169 ± 0.029 mPa·s
- viscosity (308.15 K, m1 = 0.0667): 0.5321 ± 0.029 mPa·s
- viscosity (308.15 K, m1 = 0.1047): 0.5501 ± 0.03 mPa·s
- viscosity (308.15 K, m1 = 0.2776): 0.6334 ± 0.034 mPa·s
- viscosity (308.15 K, m1 = 0.4024): 0.7332 ± 0.038 mPa·s
- viscosity (308.15 K, m1 = 0.4555): 0.7633 ± 0.039 mPa·s
- viscosity (308.15 K, m1 = 0.6276): 0.9449 ± 0.047 mPa·s
- viscosity (308.15 K, m1 = 0.782): 1.077 ± 0.053 mPa·s
- viscosity (308.15 K, m1 = 0.881): 1.083 ± 0.053 mPa·s
- viscosity (308.15 K, m1 = 0.9116): 1.135 ± 0.055 mPa·s
- viscosity (308.15 K, m1 = 1.004): 1.233 ± 0.06 mPa·s
- viscosity (308.15 K, m1 = 1.259): 1.694 ± 0.079 mPa·s
- viscosity (308.15 K, m1 = 1.492): 2.044 ± 0.094 mPa·s
- viscosity (308.15 K, m1 = 1.71): 2.433 ± 0.11 mPa·s
- viscosity (308.15 K, m1 = 1.875): 2.765 ± 0.12 mPa·s
- mass density (308.35 K, m1 = 1.875): 956.57 ± 57 kg/m3
- mass density (308.55 K, m1 = 0.0667): 785.71 ± 2.9 kg/m3
- mass density (308.6 K, m1 = 0.4024): 820.2 ± 15 kg/m3
